Data: patent publication US11406613B2, “Treatment of osteoarthritis” (ST GEORGE'S HOSPITAL MEDICAL SCHOOL, priority 2016, dated 2022)
Read-outs that look alike come from different tables or passages of the source.

Tests used:
hand OA participants [1] = details: for Side effects: Total (adverse events recorded): all systems, whole treatment group; for Participants discontinuing treatment / withdrawing because of (serious) adverse events: number of participants
Protocol: The safety and tolerability of these agents used in this context was secondarily explored, and pain sensitisation measures were assessed.
(§1) Participants were issued with a diary card with their medication to be completed for VAS pain rating on a daily basis. […] The protocol recommended that participants should record use of rescue medication (paracetamol up to 4 g daily) in their diary card. […] All other care was at the discretion of the treating physicians.

hand OA participants [2] = details: for Consumption of rescue medication (total): paracetamol up to 4 g daily as rescue medication, per-protocol population; for Average use of paracetamol as rescue medication compared with placebo: result in words
Description: as §1

knee OA = details: Chappell et al., Pain 2009; cited from earlier work
hand OA participants [3] = details: per-protocol; for Hospital Anxiety and Depression Scale Depression Mean diff (95% CI): baseline to 90 days; for Hospital Anxiety and Depression Scale Anxiety Baseline (95% CI): listed as head as printed; for Hospital Anxiety and Depression Scale Anxiety: listed as head prints only 'Anxiety'
Description: Additional secondary outcomes included the Numerical Rating Scale (NRS) pain rating 0-10, the Hospital Anxiety and Depression Scale (HADS) (Bjelland et al., Journal of Psychosomatic Research. 2002; 52(2): 69-77) and pain sensitisation measures in the three treatment groups at baseline and at week 13.

hand OA participants [4] = details: per-protocol; for Numerical Rating Scale (NRS) 90 days (95% CI) / Numerical Rating Scale (NRS) Baseline (95% CI): imputed data; for Numerical Rating Scale (NRS) Baseline (95% CI): scale 0-10; for Numerical Rating Scale (NRS) Mean diff (95% CI): baseline to 90 days
Description: as §1
Additional secondary outcomes included the Numerical Rating Scale (NRS) pain rating 0-10, the Hospital Anxiety and Depression Scale (HADS) (Bjelland et al., Journal of Psychosomatic Research. 2002; 52(2): 69-77) and pain sensitisation measures in the three treatment groups at baseline and at week 13. Operational definitions for all end points, including time points for comparisons, were specified prospectively in the trial protocol.
(§2) The AUSCAN pain, stiffness and function outcomes are presented as means and 95% confidence intervals. Analysed between group were comparisons by the Mann Whitney U test. Baseline characteristics in each group are shown by mean values and standard deviation. […] IBM SPSS Statistics 21.0 was used for all analyses and graphs were plotted using Graphpad Prism version 6.

hand OA participants [5] = details: for AUSCAN pain score 90 days (95% CI) / AUSCAN pain score Baseline (95% CI): per-protocol population; for AUSCAN pain score 90 days (95% CI) / AUSCAN pain score Baseline (95% CI) / AUSCAN function 90 days (95% CI) / AUSCAN stiffness 90 days (95% CI) / AUSCAN function Baseline (95% CI) / AUSCAN stiffness Baseline (95% CI): imputed data; for AUSCAN pain score 90 days (95% CI): pregabalin up to 300 mg, duloxetine up to 60 mg daily; for AUSCAN pain score Baseline (95% CI): 5 questions 0-100 mm, total of 500; for AUSCAN function 90 days (95% CI) / AUSCAN stiffness 90 days (95% CI) / AUSCAN function Baseline (95% CI) / AUSCAN stiffness Baseline (95% CI) / AUSCAN function Mean diff (95% CI) / AUSCAN stiffness Mean diff (95% CI) / AUSCAN pain score Mean diff (95% CI): per-protocol; for AUSCAN stiffness Baseline (95% CI): one question 0-100 mm; for AUSCAN function Mean diff (95% CI) / AUSCAN stiffness Mean diff (95% CI): baseline to 90 days; for AUSCAN pain score Mean diff (95% CI): change between baseline and 90 days (13 weeks), primary endpoint
Description: Inclusion criteria: Participants were eligible for screening if they were aged 40-75 years, had hand OA diagnosed by ACR criteria (Altman et al., Arthritis and Rheumatism 1990; 33(11): 1601-10) confirmed by a rheumatologist and experiencing pain of at least 5 or above on a numerical rating scale (NRS) of 0-10. […] All participants underwent baseline hand radiography to confirm radiographic evidence of OA. The radiographic findings were used to confirm radiographic evidence of OA from ACR criteria of at least 3 joints affected, with a Kellgren-Lawrence grade (Kellgren et al., Ann Rheum Dis 1957; 16(4): 494-502) of 2 or above in at least 3 affected joints. Radiographic scoring was performed after a training session independently by 2 researchers.
Participants were issued with a diary card with their medication to be completed for VAS pain rating on a daily basis. […] The protocol recommended that participants should record use of rescue medication (paracetamol up to 4 g daily) in their diary card.
The primary end point was the Australian and Canadian Hand Osteoarthritis Index (AUSCAN) rating scale 3.1 with sub-scales for pain, which is a validated measure of hand pain, stiffness and function in clinical trials of hand OA (Bellamy et al., Arthritis Care Res (Hoboken) 2015; 67(7): 972-80). Based on IMMPACT guidelines for pain trials (Dworkin et al., Pain 2005; 113: 9-19), primary end-point data for the AUSCAN pain sub-scale was collected. The primary endpoint was change in AUSCAN pain between baseline and 13 weeks. Patient-reported symptoms were recorded in three domains and participants asked to record their scores based on symptoms ‘in the last 48 hours’. Pain reporting consists of 5 questions, rated at 0-100 mm each, for pain in the hands at rest, gripping objects, turning and squeezing objects, scoring out of a total of 500.
For secondary outcome data, the AUSCAN stiffness and function scales were recorded; there was one question for stiffness symptoms (0-100 mm) and 3 questions testing function (0-100 mm each). Additional secondary outcomes included the Numerical Rating Scale (NRS) pain rating 0-10, the Hospital Anxiety and Depression Scale (HADS) (Bjelland et al., Journal of Psychosomatic Research. 2002; 52(2): 69-77) and pain sensitisation measures in the three treatment groups at baseline and at week 13. Operational definitions for all end points, including time points for comparisons, were specified prospectively in the trial protocol.
as §2

primary hand OA = details: Basoki et al., Ann Rheum Dis 2015; cited from earlier work
[6] = number of adverse events recorded in treatment group

Row | SMILES | Side effects: Total (adverse events recorded) (hand OA participants [1]) | Side effects: Cardiovascular (hand OA participants [1]; [6]) | Side effects: Digestive (hand OA participants [1]; [6]) | Side effects: Mental (hand OA participants [1]; [6]) | Side effects: Nervous system, Dizziness (hand OA participants [1]; [6]) | Side effects: Nervous system, Dry mouth (hand OA participants [1]; [6]) | Side effects: Nervous system, Headaches (hand OA participants [1]; [6]) | Side effects: Nervous system, Sleepiness (hand OA participants [1]; [6]) | Side effects: Ophthalmological (hand OA participants [1]; [6]) | Side effects: Respiratory (hand OA participants [1]; [6]) | Participants discontinuing treatment / withdrawing because of (serious) adverse events (hand OA participants [1]) | Consumption of rescue medication (total) (hand OA participants [2]) [days] | Average use of paracetamol as rescue medication compared with placebo (hand OA participants [2]) | Hospital Anxiety and Depression Scale Depression 90 days (95% CI) (hand OA participants [3]) | Hospital Anxiety and Depression Scale Depression Baseline (95% CI) (hand OA participants [3]) | Hospital Anxiety and Depression Scale Depression Mean diff (95% CI) (hand OA participants [3]) | Hospital Anxiety and Depression Scale Anxiety Baseline (95% CI) (hand OA participants [3]) | Hospital Anxiety and Depression Scale Anxiety (hand OA participants [3]) | Numerical Rating Scale (NRS) 90 days (95% CI) (hand OA participants [4]) | Numerical Rating Scale (NRS) Baseline (95% CI) (hand OA participants [4]) | other results
1 | CNCC[C@H](Oc1cccc2ccccc12)c1cccs1 [Duloxetine] | 57 | 2 | 18 | 9 | 3 | 6 | 8 | 3 | 2 | 3 | 2 | 5 | much lower | 3.8 (1.9 to 5.7) | 4.1 (2.3 to 5.9) | −0.3 (−1.8 to 1.2) | 4.3 (2.2 to 6.3) | 5.6 (3.6 to 7.5) | 4.3 (2.6 to 5.9) | 6.6 (5.7 to 7.4) | Side effects: ENT (hand OA participants [1]; [6]): 2; Side effects: Skin (hand OA participants [1]; [6]): 1; Efficacy for pain outcomes in knee OA (knee OA): shown efficacy for pain outcomes in knee OA; Numerical Rating Scale (NRS) Mean diff (95% CI) (hand OA participants [4]): −2.3 (−3.8 to −0.9); Significant improvement in AUSCAN pain, stiffness or function compared with placebo (hand OA participants [5]; baseline to 13 weeks, result in words): Significant improvement in AUSCAN pain, stiffness or function were not observed; AUSCAN pain score 90 days (95% CI) (hand OA participants [5]): 248.1 (162.3 to 333.9); AUSCAN pain score Baseline (95% CI) (hand OA participants [5]): 310.6 (254.3 to 367.0); AUSCAN function 90 days (95% CI) (hand OA participants [5]): 496.4 (342.4 to 650.5); AUSCAN stiffness 90 days (95% CI) (hand OA participants [5]): 48.3 (29.9 to 66.6); AUSCAN function Baseline (95% CI) (hand OA participants [5]): 598.3 (481.2 to 715.3); AUSCAN stiffness Baseline (95% CI) (hand OA participants [5]): 61.8 (45.8 to 77.8); AUSCAN function Mean diff (95% CI) (hand OA participants [5]): −101.9 (−248.4 to −44.8); AUSCAN stiffness Mean diff (95% CI) (hand OA participants [5]): −13.5 (26.5 to −0.6); AUSCAN pain score Mean diff (95% CI) (hand OA participants [5]): −62.5 (−141.6 to 16.6); AUSCAN pain score Mean diff (95% CI) (hand OA participants [5]; listed as duloxetine): −62.5
2 | CCN(CCO)CCCC(C)Nc1ccnc2cc(Cl)ccc12 (stereo not shown) [hydroxychloroquine] |  |  |  |  |  |  |  |  |  |  |  |  |  |  |  |  |  |  |  |  | Pain reduction compared to placebo in primary hand OA (primary hand OA): did not reduce pain compared to placebo
3 | CC(C)C[C@H](CN)CC(=O)O [Pregabalin, (3S)-3-(aminomethyl)-5-methylhexanoic acid] | 55 | 3 | 7 | 9 | 7 | 6 | 3 | 5 | 4 | 2 | 4 | 9 | much lower | 4.1 (2.6 to 5.6) | 5.1 (3.3 to 6.9) | −1.1 (−2.1 to −0.02) | 5.2 (2.9 to 7.5) | 6.1 (3.8 to 8.3) | 3.4 (2.4 to 4.4) | 6.1 (5.4 to 6.7) | Side effects: Genitourinary (hand OA participants [1]; [6]): 1; Side effects: Nervous system, Loss of balance (hand OA participants [1]; [6]): 7; Numerical Rating Scale (NRS) Mean diff (95% CI) (hand OA participants [4]): −2.7 (−3.5 to −1.9); AUSCAN pain score 90 days (95% CI) (hand OA participants [5]): 176.5 (123.9 to 229.1); AUSCAN pain score Baseline (95% CI) (hand OA participants [5]): 308.5 (262.6 to 354.5); AUSCAN function 90 days (95% CI) (hand OA participants [5]): 362.2 (281.7 to 442.7); AUSCAN stiffness 90 days (95% CI) (hand OA participants [5]): 36.5 (23.0 to 49.9); AUSCAN function Baseline (95% CI) (hand OA participants [5]): 608.5 (541.3 to 675.7); AUSCAN stiffness Baseline (95% CI) (hand OA participants [5]): 59.9 (51.8 to 67.9); AUSCAN function Mean diff (95% CI) (hand OA participants [5]): −246.3 (−341.7 to −151.0); AUSCAN stiffness Mean diff (95% CI) (hand OA participants [5]): −23.4 (−35.7 to −11.1); AUSCAN pain score Mean diff (95% CI) (hand OA participants [5]): −132.0 (−181.1 to −82.9); AUSCAN pain score Mean diff (95% CI) (hand OA participants [5]; listed as pregabalin): −132.0; Dose giving maximum analgesic and functional improvement effect (AUSCAN trajectory, FIG. 3) (hand OA participants [5]; result in words): maximum analgesic and functional improvement effect at the higher dose of 300 mg
